Read-outs that look alike come from different tables or passages of the source.
Assay type: physicochemical
Conditions: for degradation of the API: 3 months; for Initial (%): at time of receipt of the API from the supplier

Compound	degradation of the API	Initial (%) (Fusidic Acid BP)	Initial (%) (Sodium Fusidate BP)
CC(=O)O[C@H]1C[C@@]2(C)[C@@H](C[C@@H](O)[C@H]3[C@@]4(C)CC[C@@H](O)[C@@H](C)[C@@H]4CC[C@@]32C)/C1=C(\CCC=C(C)C)C(=O)O [Fusidic Acid, Fusidic acid]	7.7-11%	100.6	
CC(=O)O[C@H]1C[C@@]2(C)[C@@H](C[C@@H](O)[C@H]3[C@@]4(C)CC[C@@H](O)[C@@H](C)[C@@H]4CC[C@@]32C)/C1=C(\CCC=C(C)C)C(=O)O [Sodium Fusidate]	2.45-6%		98.7

Source: US20110301137A1 (APEX LABORATORIES PRIVATE LIMITED, priority 2009, published 2011)
